One experiment has as its target T1, human LXRα (Homo sapiens, UniProt Q13133).
T1 construct: biotin (biotinylated; biotinylation tag not described); made in house; host or cells: E. coli
T1 sequence (Q13133 1-447): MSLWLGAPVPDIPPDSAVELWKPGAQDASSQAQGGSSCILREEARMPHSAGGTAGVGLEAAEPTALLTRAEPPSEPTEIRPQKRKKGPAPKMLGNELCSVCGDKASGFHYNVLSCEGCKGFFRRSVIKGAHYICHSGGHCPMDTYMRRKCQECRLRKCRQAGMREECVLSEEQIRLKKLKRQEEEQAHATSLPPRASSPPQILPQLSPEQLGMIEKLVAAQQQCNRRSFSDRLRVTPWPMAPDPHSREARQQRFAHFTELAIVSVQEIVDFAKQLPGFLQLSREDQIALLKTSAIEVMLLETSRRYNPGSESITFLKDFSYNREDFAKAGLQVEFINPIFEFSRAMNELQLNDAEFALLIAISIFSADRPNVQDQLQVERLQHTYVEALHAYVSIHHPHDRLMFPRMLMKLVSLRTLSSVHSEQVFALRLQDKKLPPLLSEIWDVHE
The experiment can be described thus: Ligand-binding test procedure for human LXRα (3H T0901317 competition, flash plates). Particulars: biotinylated hLXRα, tracer 3H T0901317. The procedure: Ligand-Binding Test Procedure for Human LXRα.
Receptor source: E. coli extract from cells expressing biotinylated hLXRα. Extract was made in a similar buffer as above, but with 50 mM TRIS.
(§1) Washed streptavidin and coated flash plates with wash buffer.
(§2) Diluted receptor extract to give Bmax ˜4000 cpm and add to the wells.
(§3) Wrapped the plates in aluminum foil and stored them at +4° C. over night.
(§4) Made a dilution series in DMSO of the test ligands.
(§5) Made a 5 nM solution of the radioactive tracer in buffer.
(§6) Mixed 250 μl diluted tracer with 5 μl of the test ligand from each concentration of the dilution series.
(§7) Washed the receptor-coated flash plates.
(§8) Added 200 μl per well of the ligand/radiolabel mixture to the receptor-coated flash plates.
(§9) Wrapped the plates in aluminum foil and incubate at +4° C. over night.
(§10) Aspirated wells, and wash the flashed plates. Sealed the plate.
(§11) Measured the remaining radioactivity in the plate.

For the next experiment, the target named is T2, human LXRβ (Homo sapiens, UniProt P55055).
T2 construct: biotin (biotinylated; biotinylation tag not described); made in house; host or cells: E. coli
T2 sequence (P55055 1-460): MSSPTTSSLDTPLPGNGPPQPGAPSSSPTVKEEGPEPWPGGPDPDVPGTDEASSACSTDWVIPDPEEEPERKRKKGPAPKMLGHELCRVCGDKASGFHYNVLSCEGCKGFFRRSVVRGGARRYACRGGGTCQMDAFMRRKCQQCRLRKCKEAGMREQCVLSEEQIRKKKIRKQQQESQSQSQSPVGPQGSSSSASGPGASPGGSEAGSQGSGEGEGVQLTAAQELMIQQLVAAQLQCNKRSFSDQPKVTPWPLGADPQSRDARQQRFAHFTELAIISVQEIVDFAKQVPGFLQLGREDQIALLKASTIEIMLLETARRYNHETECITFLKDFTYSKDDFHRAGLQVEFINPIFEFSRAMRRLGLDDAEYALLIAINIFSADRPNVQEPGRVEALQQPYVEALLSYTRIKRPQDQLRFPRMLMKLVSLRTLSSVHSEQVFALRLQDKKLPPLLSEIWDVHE
The experiment can be described thus: Ligand-binding test procedure for human LXRβ (3H T0901317 competition, flash plates). As to conditions: for Binding ratio a/b: IC50 (μM) LXRα binding/IC50 (μM) LXRβ binding; for pIC50: biotinylated hLXRβ, tracer 3H T0901317. Here is the method: Ligand-Binding Test Procedure for Human LXRβ.
Receptor source: E. coli extract from cells expressing biotinylated hLXRβ. Extract was made in a similar buffer as above, but with 50 mM TRIS.
as §1, §2, §3, §4, §5, §6, §7, §8, §9, §10, §11

pIC50: −log10 of the molar value.

In turn, `Cc1cc(C(=O)O)ccc1NCc1cccc(-c2c(Cc3ccccc3)cnc3c(C(F)(F)F)cccc23)c1` [Example 53, 4-({3-[3-benzyl-8-(trifluoromethyl)quinolin-4-yl]benzyl}amino)-3-methylbenzoic acid] showed a pIC50 at human LXRα of 6.29. Further, on human LXRβ, the Binding ratio a/b was 5 and the pIC50 is 7.02.
For `O=C(O)[C@@H]1CCCN1C(=O)c1ccc(COc2cccc(-c3c(Cc4ccccc4)cnc4c(C(F)(F)F)cccc34)c2)cc1` [Example 54, 1-[4-({3-[3-benzyl-8-(trifluoromethyl)quinolin-4-yl]phenoxy}methyl)benzoyl]proline] the same measures were 6.49, 5 and 7.21.
Regarding `COc1cccc(NCc2cccc(-c3c(Cc4ccccc4)cnc4c(C(F)(F)F)cccc34)c2)c1C(=O)O` [Example 55, 2-({3-[3-benzyl-8-(trifluoromethyl)quinolin-4-yl]benzyl}amino)-6-methoxybenzoic acid], the pIC50 on human LXRα is 5.74; on human LXRβ it was 6.44. The Binding ratio a/b on human LXRβ was 5.
In the same order, the values of `O=C(O)Cc1cccc2cc(OCc3cccc(-c4c(Cc5ccccc5)cnc5c(C(F)(F)F)cccc45)c3)ccc12` [Example 57, [6-({3-[3-benzyl-8-(trifluoromethyl)quinolin-4-yl]benzyl}oxy)-1-naphthyl]acetic acid] are 6.57, 7.26 and 5.
The molecule `O=C(O)c1c(F)cccc1NCc1cccc(-c2c(Cc3ccccc3)cnc3c(C(F)(F)F)cccc23)c1` [Example 58, 2-({3-[3-benzyl-8-(trifluoromethyl)quinolin-4-yl]benzyl}amino)-6-fluorobenzoic acid] showed a pIC50 on human LXRα of 6.92. Further, at human LXRβ, the Binding ratio a/b was 5 and the pIC50 is 7.60.
Regarding `O=C(O)[C@@H]1CCCN1C(=O)c1cccc(COc2cccc(-c3c(Cc4ccccc4)cnc4c(C(F)(F)F)cccc34)c2)c1` [Example 59, 1-[3-({3-[3-benzyl-8-(trifluoromethyl)quinolin-4-yl]phenoxy}methyl)benzoyl]proline], the pIC50 on human LXRα is 6.33. Also, at human LXRβ, the Binding ratio a/b is 5 and the pIC50 was 7.01.
Take `O=C(O)C1CCN(C(=O)c2ccc(COc3cccc(-c4c(Cc5ccccc5)cnc5c(C(F)(F)F)cccc45)c3)cc2)CC1` [Example 60, 1-[4-({3-[3-benzyl-8-(trifluoromethyl)quinolin-4-yl]phenoxy}methyl)benzoyl]piperidine-4-carboxylic acid]: the pIC50 on human LXRα is 6.75. On human LXRβ, the Binding ratio a/b came to 5 and the pIC50 was 7.42.
For `O=C(N[C@@H](Cc1c[nH]cn1)C(=O)O)c1ccc(COc2cccc(-c3c(Cc4ccccc4)cnc4c(C(F)(F)F)cccc34)c2)cc1` [Example 61, N-[4-({3-[3-benzyl-8-(trifluoromethyl)quinolin-4-yl]phenoxy}methyl)benzoyl]histidine] the same measures were 6.17, 5 and 6.84.
As for `Cc1ccc(CC(=O)O)cc1OCc1cccc(-c2c(Cc3ccccc3)cnc3c(C(F)(F)F)cccc23)c1` [Example 62, [3-({3-[3-benzyl-8-(trifluoromethyl)quinolin-4-yl]benzyl}oxy)-4-methylphenyl]acetic acid], the pIC50 on human LXRα is 6.90; at human LXRβ, 7.57. On human LXRβ, the Binding ratio a/b was determined as 5.
`Cn1c(C(=O)O)cc2cc(NCc3cccc(-c4c(Cc5ccccc5)cnc5c(C(F)(F)F)cccc45)c3)ccc21` [Example 63, 5-({3-[3-benzyl-8-(trifluoromethyl)quinolin-4-yl]benzyl}amino)-1-methyl-1H-indole-2-carboxylic acid] had a pIC50 at human LXRα of 5.82. Moreover, on human LXRβ, the Binding ratio a/b is recorded as 5 and the pIC50 was 6.48.
`Cc1cc(NCc2cscc2-c2c(Cc3ccccc3)cnc3c(C(F)(F)F)cccc23)c(C)cc1CC(=O)O` [Example 64, {4-[({4-[3-benzyl-8-(trifluoromethyl)quinolin-4-yl]-3-thienyl}methyl)amino]-2,5-dimethylphenyl}acetic acid] had a pIC50 at human LXRα of 5.45. Also, at human LXRβ, the Binding ratio a/b was 4 and the pIC50 is 6.09.
In the same order, the values of `O=C(O)Cc1ccc(NCc2cccc(-c3ccnc4c(C(F)(F)F)cccc34)c2)c2ccccc12` [Example 65, [4-({3-[8-(trifluoromethyl)quinolin-4-yl]benzyl}amino)-1-naphthyl]acetic acid] are 5.05, 4 and 5.69.
In turn, `C#CCC(C(=O)O)c1cccc2c(OCc3cccc(-c4ccnc5c(C(F)(F)F)cccc45)c3)cccc12` (stereo not drawn) [Example 66, 2-[5-({3-[8-(trifluoromethyl)quinolin-4-yl]benzyl}oxy)-1-naphthyl]pent-4-ynoic acid] gave a pIC50 on human LXRα of 5.71. Further, at human LXRβ, the Binding ratio a/b came to 4 and the pIC50 is 6.34.
Consider `O=C(O)c1cc(Cl)c(OCc2cccc(-c3c(Cc4ccccc4)cnc4c(C(F)(F)F)cccc34)c2)c(Cl)c1` [Example 67, 4-({3-[3-benzyl-8-(trifluoromethyl)quinolin-4-yl]benzyl}oxy)-3,5-dichlorobenzoic acid], for which the pIC50 on human LXRα was 6.69. Besides, on human LXRβ, the Binding ratio a/b worked out at 4 and the negative logarithm of the IC50 (pIC50) is 7.33.
In turn, `O=C(O)Cc1cccc2cc(OCc3cccc(-c4ccnc5c(C(F)(F)F)cccc45)c3)ccc12` [Example 68, [6-({3-[8-(trifluoromethyl)quinolin-4-yl]benzyl}oxy)-1-naphthyl]acetic acid] showed a pIC50 on human LXRα of 5.64. For the same molecule, at human LXRβ, the Binding ratio a/b was 4 and the pIC50 is 6.27.
On human LXRα, `O=C(O)Cc1ccc2c(OCc3cccc(-c4c(Cc5ccccc5)cnc5c(C(F)(F)F)cccc45)c3)cccc2c1` [Example 69, [5-({3-[3-benzyl-8-(trifluoromethyl)quinolin-4-yl]benzyl}oxy)-2-naphthyl]acetic acid] had a pIC50 of 6.56. In addition, on human LXRβ, the Binding ratio a/b is 4 and the pIC50 is 7.15.
In the same order, the values of `Cc1cc(NCc2cc(-c3c(Cc4ccccc4)cnc4c(C(F)(F)F)cccc34)cs2)c(C)cc1CC(=O)O` [Example 70, {4-[({4-[3-benzyl-8-(trifluoromethyl)quinolin-4-yl]-2-thienyl}methyl)amino]-2,5-dimethylphenyl}acetic acid] are 8.15, 4 and 8.70.
`Cc1ccc(NCc2cccc(-c3c(Cc4ccccc4)cnc4c(C(F)(F)F)cccc34)c2)c(C(=O)O)c1` [Example 71, 2-({3-[3-benzyl-8-(trifluoromethyl)quinolin-4-yl]benzyl}amino)-5-methylbenzoic acid] showed a pIC50 at human LXRα of 5.69. For the same molecule, on human LXRβ, the Binding ratio a/b turned out to be 4 and the pIC50 was 6.25.
`O=C(N[C@@H](Cc1c[nH]cn1)C(=O)O)c1cccc(COc2cccc(-c3c(Cc4ccccc4)cnc4c(C(F)(F)F)cccc34)c2)c1` [Example 72, N-[3-({3-[3-benzyl-8-(trifluoromethyl)quinolin-4-yl]phenoxy}methyl)benzoyl]histidine]: the pIC50 at human LXRα is 5.96. In addition, on human LXRβ, the Binding ratio a/b is reported as 4 and the pIC50 was 6.51.
